The source of these data is patent US20070060610A1, “Methods and pharmaceutical formulations for increasing bioavailability” (priority 2005, published 2007).

This assay concerns Caco-2 monolayers. Particulars: FIG. 1A; different pre-incubation times; Rhodamine 123 13 μM; TPGS 1000 33 μM on both sides.

Procedure: Caco-2 cell culture and handling: Caco-2 cells, clone C2BBe1, were purchased from American Type Culture Collection (ATCC; Manassas, Va.) and used from passage 70-92 with Corning Incorp. Life Sciences (Acton, Mass.) polycarbonate membranes (3460; 12-well, pore size 0.4 μm, 1.13 cm^2). Cells were seeded at a density of ˜60,000 cells/cm^2 and grown at ˜37° C. in a controlled atmosphere of ˜5% CO2 with a relative humidity of ˜85%. The culture medium consisted of DMEM supplemented with 10% FBS, 1% non-essential amino acids, 100 μg/mL streptomycin and 100 U/mL penicillin. Transepithelial electrical resistance (TEER) was measured with a hand-held REMS electrical volt-ohm meter EVOM (World Precision Instruments; Sarasota, Fla.). […]
Using the transport assay, drug transport was assessed in absorptive (apical to basolateral, Ap→Bl) and secretory (Bl→Ap) directions. […]
Cell monolayers were agitated using an orbital shaker (IKA®—Werke GmbH & CO KG; Staufen, Germany) at 100±20 rpm. […] RHO was quantified with a Cytofluor-2 fluorescence plate reader (Perkin Elmer Biosystems; Weiterstadt, Germany) operating at excitation wavelength of 485 nm and emission wavelength of 530 nm to measure RHO.
Apparent Permeability and statistical analysis: flux was determined using receiver compartment RHO steady-state appearance rates (ΔQ/Δt). Papp across Caco-2 monolayers was calculated via: [formula] […]

With “d-α-tocopheryl polyethylene glycol succinate [TPGS 1000]”, the “effect of pre-exposure on amount of compound transported across the cells (apical to basolateral)” value is reported as “effectively increases the amount of compound transported across the cells (apical to basolateral) in a time-dependent fashion”.
